The values that follow come from US3933794A, “2-(2-Alkynylamino)-3H-1,4-benzodiazepines” (priority 1973, dated 1976).

Assay type in all cases: in vivo
For assay [1], the system named is mice. The assay can be described thus: Dish test. Particulars: Mus musculus, ip, 0.05 h, intraperitoneal injection, 50% of mice remain in dish for more than 3 minutes, read-out: ED50 D (dish test). The method, then:
(§1) Sedative effects of the compounds of this invention are shown by the following tests in mice:
Dish test: Mice in Petri dishes (10 cm. diameter, 5 cm. high, partially embedded in wood shavings), climb out in a very short time, when not treated. Mice remaining in the dish for more than 3 minutes indicates tranquilization. ED50 equals the dose of test compound at which 50% of the mice remain in the dish.

The test system of assay [2] is mice. The assay can be described thus: Antagonism to strychnine (as sulfate). Particulars: Mus musculus, ip, 4 h, read-out: ED50 Str (strychnine antagonism). The procedure: as §1
Antagonism to strychnine (as sulfate): The test consists in orally administering into groups of 6 mice the test compound, and 30 minutes later 3 mg./kg. strychnine sulfate intraperitoneally. The survivors after 4 hours reflect the activity of the compound as a muscle relaxant and antispasmodic. A dosage of 3 mg./kg. of strychnine sulfate is routinely fatal to all the control mice.

Assay [3] concerns mice. The assay can be described thus: Nicotine antagonism test. The note with it: Mus musculus, ip, 0.5 h, intraperitoneal injection, nicotine salicylate 2 mg./kg. 30 minutes later, (3) = death, read-out: ED50 Ni (nicotine antagonism (3) test). The procedure: as §1
Nicotine antagonism test: Mice in a group of 6 are injected with the text compound. Thirty minutes later the mice including control (untreated) mice are injected with nicotine salicylate (2 mg./kg.). The control mice show over-stimulation, i.e., (1) running convulsions followed by (2) tonic extensor filts; followed by (3) death.

Assay [4] has as its system mice. The assay can be described thus: Chimney test. Particulars: Mus musculus, ip, intraperitoneal injection, 50% of mice fail to back out of glass cylinder within 30 seconds, read-out: ED50 Ch (chimney test).
Text: as §1
Chimney test: [Med. Exp. 4, 145 (1961)]: The test determines the ability of mice to back up and out of a vertical glass cylinder within 30 seconds. At the effective dosage, 50% of the mice failed doing it.

The subject of assay [5] is mice. As to the kind of experiment: Pedestal test. The note with it: Mus musculus, ip, 1 min, intraperitoneal injection, mice stay on pedestal for more than 1 minute, read-out: ED50 P (pedestal test). The procedure:
as §1
Pedestal test: The untreated mouse leaves a standard pedestal in less than a minute to climb back to the floor of the standard mouse box. Tranquilized mice will stay on the pedestal for more than 1 minutes.

With `Cc1cnc2n1-c1ccc(Cl)cc1C(c1ccccc1Cl)=NC2` [8-chloro-6-(2-chlorophenyl)-1-methyl-4H-imidazo[1,2-a][1,4]benzodiazepine], the 50% effective dose (ED50) in the assay on mice [1] turned out to be 0.23 mg/kg; in the assay with mice [2], 1.8 mg/kg; in the assay with mice [3], 0.13 mg/kg; with mice [4], 0.5 mg/kg; in the assay on mice [5], 0.4 mg/kg.

`Cc1cnc2n1-c1ccc(Cl)cc1C(c1ccccc1)=NC2` [8-chloro-1-methyl-6-phenyl-4H-imidazo[1,2-a]-[1,4]benzodiazepine]: the ED50 in the assay with mice [1] is 5 mg/kg; in the assay with mice [2], 79 mg/kg; in the assay with mice [3], 1.8 mg/kg; in the assay with mice [4], 25 mg/kg; with mice [5], 28 mg/kg.

As to `O=Cc1cnc2n1-c1ccc(Cl)cc1C(c1ccccc1)=NC2` [8-chloro-6-phenyl-4H-imidazo[1,2-a][1,4]benzodiazepine-1-carboxaldehyde], the ED50 stood at 0.8 mg/kg in the assay with mice [1]; 11 mg/kg in the assay with mice [2]; 0.36 mg/kg in the assay with mice [3]; 4 mg/kg in the assay on mice [4]; 2.8 mg/kg with mice [5].

For orientation: ED50 means the dose that gives a 50% effect, or the effect in half of the subjects.
